Measured values published in US12257247B2 (Monte Rosa Therapeutics AG, priority 2023, dated 2025).
Where two headings read alike, the source gives them in different places.

Target: T1, VAV1 (Homo sapiens, UniProt P15498+Q96SW2)
T1 construct: A heterozygous VAV1 C-terminal HiBiT knock-in pool was generated at Monte Rosa Therapeutics from a clonal Jurkat cell; endogenous in cells; host or cells: Jurkat clone stably expressing LgBiT, homozygous GSPT1-G575N; heterozygous VAV1-HiBiT knock-in pool
Assay: VAV1 degradation activity, VAV1-HiBiT knock-in Jurkat luminescence assay (Example A, Table 1)
Format: cell-based
Details: VAV1-HiBiT knock-in Jurkat cells, luminescence read at 6 and 24 hours; for Dmax: Jurkat
In short: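 Luminescence was measured at 6 and 24 h after adding compound (10 μM stock) to VAV1-HiBiT knock-in Jurkat cells, which had been pre-incubated ~16 h at 37° C. in RPMI/10% FBS containing Endurazine. EC50 values came from control-normalised responses fitted to a 3-parameter logistic model with hillslope fixed at 1.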

[1] = read-out: VAV1 DC50 (nM), class

Dmax (read-out: VAV1 Dmax %) [%] | Dmax (read-out: VAV1 Dmax %, class) [%] | DC50 (read-out: VAV1 DC50) [nM] | DC50 [1] [nM] | SMILES
97.5 | > 90 | 4.87 | ≤ 100 | CC1(C)CCC(=O)N1c1ccc(-c2cccc(C3CCC(=O)NC3=O)c2Cl)cc1 (stereo not drawn) [Compound 413, 3-(2-chloro-4′-(2,2-dimethyl-5-oxopyrrolidin-1-yl)-[1,1′-biphenyl]-3-yl)piperidine-2,6-dione]
97.7 | > 90 | 5.85 | ≤ 100 | O=C1CCC(c2cccc(-c3ccc(N4C(=O)CCC45CC5)cc3)c2Cl)C(=O)N1 (stereo not drawn) [Compound 414, 3-(2-chloro-4′-(5-oxo-4-azaspiro[2.4]heptan-4-yl)-[1,1′-biphenyl]-3-yl)piperidine-2,6-dione]
97.2 | > 90 | 4.87 | ≤ 100 | CC1(C)COC(=O)N1c1ccc(-c2cccc(C3CCC(=O)NC3=O)c2Cl)cc1 (stereo not drawn) [Compound 415, 3-(2-chloro-4′-(4,4-dimethyl-2-oxooxazolidin-3-yl)-[1,1′-biphenyl]-3-yl)piperidine-2,6-dione]
98 | > 90 | 3.54 | ≤ 100 | O=C1CCC(c2cccc(-c3ccc(N4C(=O)OCC45CCC5)cc3)c2Cl)C(=O)N1 (stereo not drawn) [Compound 416, 3-(2-chloro-4′-(6-oxo-7-oxa-5-azaspiro[3.4]octan-5-yl)-[1,1′-biphenyl]-3-yl)piperidine-2,6-dione]
98.5 | > 90 | 6.68 | ≤ 100 | O=C1CCC(c2cccc(-c3ccc(-n4cccc(CC(F)(F)F)c4=O)cc3)c2Cl)C(=O)N1 (stereo not drawn) [Compound 417, 3-(2-chloro-4′-(2-oxo-3-(2,2,2-trifluoroethyl)pyridin-1(2H)-yl)-[1,1′-biphenyl]-3-yl)piperidine-2,6-dione]
45.2 | < 60 | ≥ 10000 | > 1000 | O=C1CCC(c2cccc(-c3ccc(N4C(=O)CC45CCOCC5)cc3)c2Cl)C(=O)N1 (stereo not drawn) [Compound 418, 3-(2-chloro-4′-(2-oxo-7-oxa-1-azaspiro-[3.5]nonan-1-yl)-[1,1′-biphenyl]-3-yl)piperidine-2,6-dione]
74.6 | 60 to 90 | 144 | 100 to 1000 | O=C1CCC(c2cccc(-c3ccc(CS(=O)(=O)N4CCCC4)cc3)c2Cl)C(=O)N1 (stereo not drawn) [Compound 423, 3-(2-chloro-4′-((pyrrolidin-1-ylsulfonyl)methyl)-[1,1′-biphenyl]-3-yl)piperidine-2,6-dione]
95.3 | > 90 | 9.94 | ≤ 100 | CN1CCCN(Cc2ccc(-c3cccc(C4CCC(=O)NC4=O)c3Cl)cc2)C1=O (stereo not drawn) [Compound 424, 3-(2-chloro-4′-((3-methyl-2-oxotetrahydropyrimidin-1(2H)-yl)methyl)-[1,1′-biphenyl]-3-yl)piperidine-2,6-dione]
96.5 | > 90 | 8.9 | ≤ 100 | O=C1CCC(c2cccc(-c3ccc(N4C(=O)OCC45CC5)cc3)c2Cl)C(=O)N1 (stereo not drawn) [Compound 426, 3-(2-chloro-4′-(5-oxo-6-oxa-4-azaspiro[2.4]heptan-4-yl)-[1,1′-biphenyl]-3-yl)piperidine-2,6-dione]
96.9 | > 90 | 5.19 | ≤ 100 | O=C1CCC(c2cccc(-c3ccc(N4CCCN(CC(F)F)C4=O)cc3)c2Cl)C(=O)N1 (stereo not drawn) [Compound 429, 3-(2-chloro-4′-(3-(2,2-difluoroethyl)-2-oxotetrahydropyrimidin-1(2H)-yl)-[1,1′-biphenyl]-3-yl)piperidine-2,6-dione]
33.6 | < 60 | ≥ 10000 | > 1000 | O=C1CCC(c2cccc(-c3ccc(CN4CCCCC4=O)nc3)c2Cl)C(=O)N1 (stereo not drawn) [Compound 433, 3-(2-chloro-3-(6-((2-oxopiperidin-1-yl)methyl)pyridin-3-yl)phenyl)piperidine-2,6-dione]
70.8 | 60 to 90 | 330 | 100 to 1000 | CN1CCCN(c2ccc(-c3cccc(C4CCC(=O)NC4=O)c3Cl)cn2)C1=O (stereo not drawn) [Compound 435, 3-(2-chloro-3-(6-(3-methyl-2-oxotetrahydropyrimidin-1(2H)-yl)pyridin-3-yl)phenyl)piperidine-2,6-dione]
96 | > 90 | 8.75 | ≤ 100 | CN1CCCN(c2ccc(-c3cccc(C4CCC(=O)NC4=O)c3Cl)cc2F)C1=O (stereo not drawn) [Compound 436, 3-(2-chloro-3′-fluoro-4′-(3-methyl-2-oxotetrahydropyrimidin-1(2H)-yl)-[1,1′-biphenyl]-3-yl)piperidine-2,6-dione]
90.5 | > 90 | 91.7 | ≤ 100 | O=C1CCC(c2cccc(-c3ccc(S(=O)(=O)N4CCCC4)cc3)c2Cl)C(=O)N1 (stereo not drawn) [Compound 438, 3-(2-chloro-4′-(pyrrolidin-1-ylsulfonyl)-[1,1′-biphenyl]-3-yl) piperidine-2,6-dione]

Continued, compound first:

SMILES | Dmax (read-out: VAV1 Dmax %) [%] | Dmax (read-out: VAV1 Dmax %, class) [%] | DC50 (read-out: VAV1 DC50) [nM] | DC50 [1] [nM]
O=C1CCC(c2cccc(-c3cnc(Cn4ccccc4=O)c(F)c3)c2Cl)C(=O)N1 (stereo not drawn) [Compound 412, 3-(2-chloro-3-(5-fluoro-6-((2-oxopyridin-1(2H)-yl)methyl)pyridin-3-yl)phenyl)piperidine-2,6-dione] | 67.3 | 60 to 90 | 418 | 100 to 1000
O=C1CCC(c2cccc(-c3ccc(-n4cccnc4=O)c(F)c3)c2Cl)C(=O)N1 (stereo not drawn) [Compound 419, 3-(2-chloro-3′-fluoro-4′-(2-oxopyrimidin-1(2H)-yl)-[1,1′-biphenyl]-3-yl)piperidine-2,6-dione] | 90.7 | > 90 | 43.1 | ≤ 100
Cc1cnc(Cc2ccc(-c3cccc(C4CCC(=O)NC4=O)c3Cl)cc2)nc1 (stereo not drawn) [Compound 420, 3-(2-chloro-4′-((5-methylpyrimidin-2-yl)methyl)-[1,1′-biphenyl]-3-yl)piperidine-2,6-dione] | 98.8 | > 90 | 2.43 | ≤ 100
COc1ccnc(Cc2ccc(-c3cccc(C4CCC(=O)NC4=O)c3Cl)cc2)n1 (stereo not drawn) [Compound 421, 3-(2-chloro-4′-((4-methoxypyrimidin-2-yl)methyl)-[1,1′-biphenyl]-3-yl)piperidine-2,6-dione] | 97.8 | > 90 | 6.96 | ≤ 100
COc1cnc(Cc2ccc(-c3cccc(C4CCC(=O)NC4=O)c3Cl)cc2)nc1 (stereo not drawn) [Compound 422, 3-(2-chloro-4′-((5-methoxypyrimidin-2-yl)methyl)-[1,1′-biphenyl]-3-yl)piperidine-2,6-dione] | 98.4 | > 90 | 4.35 | ≤ 100
CN1CCCN(Cc2ccc(-c3cccc(C4CCC(=O)NC4=O)c3Cl)cc2F)C1=O (stereo not drawn) [Compound 425, 3-(2-chloro-3′-fluoro-4′-((3-methyl-2-oxotetrahydropyrimidin-1(2H)-yl)methyl)-[1,1′-biphenyl]-3-yl)piperidine-2,6-dione] | 96.5 | > 90 | 10.7 | ≤ 100
O=C1CCC(c2cccc(-c3cnc(-n4ccccc4=O)c(F)c3)c2Cl)C(=O)N1 (stereo not drawn) [Compound 427, 3-(2-chloro-3-(3′-fluoro-2-oxo-2H-[1,2′-bipyridin]-5′-yl)phenyl)piperidine-2,6-dione] | 79.6 | 60 to 90 | 246 | 100 to 1000
Cn1ccc(C(F)(F)F)c(-c2ccc(-c3cccc(C4CCC(=O)NC4=O)c3Cl)cc2)c1=O (stereo not drawn) [Compound 428, 3-(2-chloro-4′-(1-methyl-2-oxo-4-(trifluoromethyl)-1,2-dihydropyridin-3-yl)-[1,1′-biphenyl]-3-yl)piperidine-2,6-dione] | 98.8 | > 90 | 2.25 | ≤ 100
O=C1CCC(c2cccc(-c3ccc(Cc4ncco4)nc3)c2Cl)C(=O)N1 (stereo not drawn) [Compound 430, 3-(2-chloro-3-(6-(oxazol-2-ylmethyl)pyridin-3-yl)phenyl)piperidine-2,6-dione] | 72.6 | 60 to 90 | 261 | 100 to 1000
O=C1CCC(c2cccc(-c3ccc(CN4CCCOC4=O)nc3)c2Cl)C(=O)N1 (stereo not drawn) [Compound 431, 3-(2-chloro-3-(6-((2-oxo-1,3-oxazinan-3-yl)methyl)pyridin-3-yl)phenyl)piperidine-2,6-dione] | 23.5 | < 60 | ≥ 10000 | > 1000
CN1CCCN(Cc2ccc(-c3cccc(C4CCC(=O)NC4=O)c3Cl)cn2)C1=O (stereo not drawn) [Compound 432, 3-(2-chloro-3-(6-((3-methyl-2-oxotetrahydropyrimidin-1(2H)-yl)methyl)pyridin-3-yl)phenyl)piperidine-2,6-dione] | 71.9 | 60 to 90 | 182 | 100 to 1000
O=C1CCC(c2cccc(-c3ccc(Cn4cccnc4=O)nc3)c2Cl)C(=O)N1 (stereo not drawn) [Compound 434, 3-(2-chloro-3-(6-((2-oxopyrimidin-1(2H)-yl)methyl)pyridin-3-yl)phenyl)piperidine-2,6-dione] | 46.2 | < 60 | ≥ 10000 | > 1000
Cc1ccnc(Cc2ccc(-c3cccc(C4CCC(=O)NC4=O)c3Cl)cc2)n1 (stereo not drawn) [Compound 437, 3-(2-chloro-4′-((4-methylpyrimidin-2-yl)methyl)-[1,1′-biphenyl]-3-yl)piperidine-2,6-dione] | 96.5 | > 90 | 5.92 | ≤ 100
